Laboratory results: ChEMBL document CHEMBL4371076 (J Med Chem, 2019)
Activity calls are given as the source filed them. The calls are words filed in the database; no cut-off is given here.

Key:
Cytochrome P450 3A4 [1] = target: T1, Cytochrome P450 3A4 (Homo sapiens, UniProt P08684); experiment: Inhibition of CYP3A4 in human liver microsomes; assay type: ADME; conditions: human, microsomes
Cytochrome P450 2B6 [2] = target: T2, Cytochrome P450 2B6 (Homo sapiens, UniProt P20813); experiment: Inhibition of CYP2B6 in human liver microsomes; assay type: ADME; conditions: human, microsomes
T2 sequence (P20813 whole entry): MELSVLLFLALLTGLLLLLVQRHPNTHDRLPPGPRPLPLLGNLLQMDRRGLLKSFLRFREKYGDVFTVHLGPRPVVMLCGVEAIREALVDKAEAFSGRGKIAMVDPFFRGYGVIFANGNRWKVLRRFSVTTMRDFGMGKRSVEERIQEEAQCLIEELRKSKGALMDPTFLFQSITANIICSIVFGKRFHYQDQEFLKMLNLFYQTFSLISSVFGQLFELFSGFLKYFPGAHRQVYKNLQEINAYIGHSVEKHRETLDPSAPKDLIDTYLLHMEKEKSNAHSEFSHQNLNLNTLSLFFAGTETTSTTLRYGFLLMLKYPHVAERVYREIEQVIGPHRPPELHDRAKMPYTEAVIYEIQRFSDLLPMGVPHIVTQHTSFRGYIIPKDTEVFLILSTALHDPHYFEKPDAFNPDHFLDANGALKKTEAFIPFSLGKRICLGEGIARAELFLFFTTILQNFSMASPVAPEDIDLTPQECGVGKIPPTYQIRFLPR

[3] = Metabolic stability in human liver microsomes assessed as parent compound remaining at 0.5 uM after 10 mins; assay type: ADME, Microsome; conditions: read-out: Stability
Cytochrome P450 2C19 [4] = target: T3, Cytochrome P450 2C19 (Homo sapiens, UniProt P33261); experiment: Inhibition of CYP2C19 in human liver microsomes; assay type: ADME; conditions: human, microsomes
T3 sequence (P33261 whole entry): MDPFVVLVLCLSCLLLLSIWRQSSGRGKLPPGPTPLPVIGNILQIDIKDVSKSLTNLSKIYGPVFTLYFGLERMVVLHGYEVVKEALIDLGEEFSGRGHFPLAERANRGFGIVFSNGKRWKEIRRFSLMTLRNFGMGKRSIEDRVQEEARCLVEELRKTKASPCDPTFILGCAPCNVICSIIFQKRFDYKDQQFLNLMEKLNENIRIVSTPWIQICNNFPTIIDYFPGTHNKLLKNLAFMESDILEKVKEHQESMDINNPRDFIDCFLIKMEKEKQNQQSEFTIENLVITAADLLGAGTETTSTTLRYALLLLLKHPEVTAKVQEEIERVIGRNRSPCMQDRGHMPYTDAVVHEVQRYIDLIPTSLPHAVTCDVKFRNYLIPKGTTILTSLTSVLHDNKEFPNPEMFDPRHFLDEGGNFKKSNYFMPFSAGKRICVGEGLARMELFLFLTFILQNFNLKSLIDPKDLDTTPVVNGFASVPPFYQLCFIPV

[5] = Fraction unbound in mouse plasma; assay type: ADME, cell-free
Cytochrome P450 2C8 [6] = target: T4, Cytochrome P450 2C8 (Homo sapiens, UniProt P10632); experiment: Inhibition of CYP2C8 in human liver microsomes; assay type: ADME; conditions: human, microsomes
T4 sequence (P10632 whole entry): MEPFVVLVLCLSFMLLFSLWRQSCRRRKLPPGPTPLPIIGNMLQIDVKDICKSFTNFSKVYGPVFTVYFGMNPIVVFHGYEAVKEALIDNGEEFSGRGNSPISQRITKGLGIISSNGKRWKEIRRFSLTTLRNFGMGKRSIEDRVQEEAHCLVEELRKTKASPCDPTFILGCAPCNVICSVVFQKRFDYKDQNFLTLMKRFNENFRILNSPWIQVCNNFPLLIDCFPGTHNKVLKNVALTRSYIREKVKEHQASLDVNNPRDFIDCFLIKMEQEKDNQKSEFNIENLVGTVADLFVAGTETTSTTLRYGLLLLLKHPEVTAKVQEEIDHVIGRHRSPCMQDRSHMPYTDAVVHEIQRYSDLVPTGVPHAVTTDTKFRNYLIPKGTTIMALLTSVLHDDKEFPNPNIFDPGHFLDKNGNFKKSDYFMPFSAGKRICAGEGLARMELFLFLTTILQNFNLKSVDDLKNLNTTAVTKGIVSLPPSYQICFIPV

Cytochrome P450 2D6 [7] = target: T5, Cytochrome P450 2D6 (Homo sapiens, UniProt P10635); experiment: Time-dependant inhibition of CYP2D6 in human liver microsomes; assay type: ADME
T5 sequence (P10635 whole entry): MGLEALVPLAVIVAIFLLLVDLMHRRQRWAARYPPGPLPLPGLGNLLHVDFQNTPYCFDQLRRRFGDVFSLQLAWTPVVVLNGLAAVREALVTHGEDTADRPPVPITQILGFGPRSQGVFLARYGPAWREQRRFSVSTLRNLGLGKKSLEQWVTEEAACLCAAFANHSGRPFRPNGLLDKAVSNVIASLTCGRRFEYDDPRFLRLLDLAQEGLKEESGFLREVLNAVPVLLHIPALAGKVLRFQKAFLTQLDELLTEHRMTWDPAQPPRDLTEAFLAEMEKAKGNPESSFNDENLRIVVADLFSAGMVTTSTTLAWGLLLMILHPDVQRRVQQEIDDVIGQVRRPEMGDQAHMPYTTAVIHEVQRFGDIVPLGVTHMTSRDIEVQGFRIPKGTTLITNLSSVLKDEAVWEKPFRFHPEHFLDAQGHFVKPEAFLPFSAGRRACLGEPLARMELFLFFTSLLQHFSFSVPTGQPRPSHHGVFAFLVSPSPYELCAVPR

Cytochrome P450 2C9 [8] = target: T6, Cytochrome P450 2C9 (Homo sapiens, UniProt P11712); experiment: Time-dependant inhibition of CYP2C9 in human liver microsomes; assay type: ADME
T6 sequence (P11712 whole entry): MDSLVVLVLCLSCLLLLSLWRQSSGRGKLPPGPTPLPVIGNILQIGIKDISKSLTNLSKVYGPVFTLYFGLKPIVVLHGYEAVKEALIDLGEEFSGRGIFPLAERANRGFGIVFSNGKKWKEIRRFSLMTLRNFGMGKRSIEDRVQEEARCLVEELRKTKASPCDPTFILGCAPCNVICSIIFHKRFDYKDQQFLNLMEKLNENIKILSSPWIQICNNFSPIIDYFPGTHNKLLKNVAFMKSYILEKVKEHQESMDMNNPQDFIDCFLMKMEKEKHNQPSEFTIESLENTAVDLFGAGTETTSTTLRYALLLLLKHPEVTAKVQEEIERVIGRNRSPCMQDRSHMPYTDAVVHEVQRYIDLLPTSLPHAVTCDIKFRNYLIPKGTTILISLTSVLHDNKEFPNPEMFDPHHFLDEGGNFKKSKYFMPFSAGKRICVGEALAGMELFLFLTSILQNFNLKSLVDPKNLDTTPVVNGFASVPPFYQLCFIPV

[9] = target: Sodium channel protein type 9 subunit alpha (Mus musculus, UniProt Q62205); experiment: Inhibition of Nav1.7 in mouse DRG neurons at -70 mV holding potential by patch clamp electrophysiology method
[10] = Toxicity in CD1 mouse model of formalin-induced nociception assessed as prostration or sedation at 30 mg/kg, po; assay type: organism-based; conditions: in vivo
[11] = Permeability of the compound at pH 7.4 by PAMPA; assay type: ADME; conditions: read-out: permeability
[12] = Metabolic stability in mouse liver microsomes assessed as parent compound remaining at 0.5 uM after 10 mins; assay type: ADME, Microsome; conditions: read-out: Stability
Cytochrome P450 2B6 [13] = target: T2, Cytochrome P450 2B6; experiment: Time-dependant inhibition of CYP2B6 in human liver microsomes; assay type: ADME
[14] = Unbound plasma concentration in CD1 mouse model of formalin-induced nociception at 3 mg/kg, po; assay type: ADME, organism-based; conditions: in vivo
Cytochrome P450 2C9 [15] = target: T6, Cytochrome P450 2C9; experiment: Inhibition of CYP2C9 in human liver microsomes; assay type: ADME; conditions: human, microsomes
[16] = Metabolic stability in rat liver microsomes assessed as parent compound remaining at 0.5 uM after 10 mins; assay type: ADME, Microsome; conditions: read-out: Stability
Mus musculus [17] = experiment: Analgesic activity in CD1 mouse model of formalin-induced nociception assessed as reduction in formalin-evoked paw flinching/licking response during second phase at 30 mg/kg, po pretreated for 30 mins followed by formalin treatment and measured during 15 to 45 mins post formalin injection; assay type: functional, organism-based
Cytochrome P450 3A4 [18] = target: T1, Cytochrome P450 3A4; experiment: Time-dependant inhibition of CYP3A4 in human liver microsomes; assay type: ADME
[19] = target: Sodium channel protein type 9 subunit alpha (Homo sapiens, UniProt Q15858); experiment: Inhibition of recombinant human Nav1.7 expressed in HEK293 cells at -70 mV holding potential by patch clamp electrophysiology method; assay type: cell-based
Chain of Sodium channel protein type 9 subunit alpha (Homo sapiens, UniProt Q15858) (Q15858 whole entry): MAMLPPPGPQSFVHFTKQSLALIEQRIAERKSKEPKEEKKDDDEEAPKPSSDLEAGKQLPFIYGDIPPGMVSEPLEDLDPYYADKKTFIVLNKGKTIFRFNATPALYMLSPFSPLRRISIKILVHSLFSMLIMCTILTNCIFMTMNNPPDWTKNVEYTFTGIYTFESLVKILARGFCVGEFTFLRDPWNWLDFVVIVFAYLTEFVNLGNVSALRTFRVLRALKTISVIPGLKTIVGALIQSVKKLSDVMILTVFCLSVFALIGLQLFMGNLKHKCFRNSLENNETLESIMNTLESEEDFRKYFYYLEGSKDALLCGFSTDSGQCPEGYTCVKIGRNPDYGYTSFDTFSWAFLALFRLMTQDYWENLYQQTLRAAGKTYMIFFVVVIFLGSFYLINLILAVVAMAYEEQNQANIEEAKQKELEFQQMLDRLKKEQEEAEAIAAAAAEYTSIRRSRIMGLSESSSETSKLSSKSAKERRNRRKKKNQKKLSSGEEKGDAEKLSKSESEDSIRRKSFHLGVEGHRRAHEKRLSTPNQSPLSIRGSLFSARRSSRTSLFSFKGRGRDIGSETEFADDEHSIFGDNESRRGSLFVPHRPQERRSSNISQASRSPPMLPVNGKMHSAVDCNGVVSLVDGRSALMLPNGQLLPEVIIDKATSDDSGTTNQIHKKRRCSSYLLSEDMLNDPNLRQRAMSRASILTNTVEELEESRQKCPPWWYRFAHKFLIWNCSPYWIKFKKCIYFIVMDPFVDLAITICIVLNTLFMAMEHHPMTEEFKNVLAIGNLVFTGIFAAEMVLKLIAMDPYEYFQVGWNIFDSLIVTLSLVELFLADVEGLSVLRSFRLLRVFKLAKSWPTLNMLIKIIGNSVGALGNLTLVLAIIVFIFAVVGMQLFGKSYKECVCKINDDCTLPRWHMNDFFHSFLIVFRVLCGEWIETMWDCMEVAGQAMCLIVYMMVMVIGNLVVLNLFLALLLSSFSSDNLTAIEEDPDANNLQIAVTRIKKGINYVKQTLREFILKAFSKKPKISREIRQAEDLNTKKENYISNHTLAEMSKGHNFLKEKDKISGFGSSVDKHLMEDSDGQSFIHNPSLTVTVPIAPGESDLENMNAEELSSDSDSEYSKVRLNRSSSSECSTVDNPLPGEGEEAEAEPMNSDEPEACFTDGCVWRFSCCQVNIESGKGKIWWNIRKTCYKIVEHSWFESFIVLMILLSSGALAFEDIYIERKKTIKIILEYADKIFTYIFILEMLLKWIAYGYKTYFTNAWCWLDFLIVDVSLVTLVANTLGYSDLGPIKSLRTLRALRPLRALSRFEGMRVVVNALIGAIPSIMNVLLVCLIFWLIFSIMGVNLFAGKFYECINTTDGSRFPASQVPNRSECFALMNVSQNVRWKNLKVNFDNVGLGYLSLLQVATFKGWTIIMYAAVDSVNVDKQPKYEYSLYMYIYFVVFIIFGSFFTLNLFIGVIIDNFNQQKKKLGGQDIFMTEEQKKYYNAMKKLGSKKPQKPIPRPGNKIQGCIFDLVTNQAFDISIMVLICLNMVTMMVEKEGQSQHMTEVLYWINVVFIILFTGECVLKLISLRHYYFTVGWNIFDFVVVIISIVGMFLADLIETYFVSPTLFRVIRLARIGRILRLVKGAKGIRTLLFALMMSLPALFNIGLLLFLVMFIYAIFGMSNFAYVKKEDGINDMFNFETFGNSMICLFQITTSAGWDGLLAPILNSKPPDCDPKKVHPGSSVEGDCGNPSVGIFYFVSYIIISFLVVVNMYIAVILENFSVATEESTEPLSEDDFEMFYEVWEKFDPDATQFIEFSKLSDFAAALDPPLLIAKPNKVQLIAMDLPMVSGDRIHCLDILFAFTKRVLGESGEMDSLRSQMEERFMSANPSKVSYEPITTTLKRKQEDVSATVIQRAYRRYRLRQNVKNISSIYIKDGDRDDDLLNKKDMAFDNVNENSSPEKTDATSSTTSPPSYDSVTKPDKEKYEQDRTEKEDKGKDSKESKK

[20] = Toxicity in CD1 mouse model of formalin-induced nociception assessed as hypothermia at 30 mg/kg, po; assay type: organism-based; conditions: in vivo
[21] = Plasma concentration in CD1 mouse model of formalin-induced nociception at 3 mg/kg, po; assay type: ADME, organism-based; conditions: read-out: Cp, in vivo
Mus musculus [22] = experiment: Analgesic activity in CD1 mouse model of formalin-induced nociception assessed as reduction in formalin-evoked paw flinching/licking response during first phase at 30 mg/kg, po pretreated for 30 mins followed by formalin treatment and measured during first 5 mins post formalin injection; assay type: functional, organism-based
Cytochrome P450 2C8 [23] = target: T4, Cytochrome P450 2C8; experiment: Time-dependant inhibition of CYP2C8 in human liver microsomes; assay type: ADME
Cytochrome P450 2C19 [24] = target: T3, Cytochrome P450 2C19; experiment: Time-dependant inhibition of CYP2C19 in human liver microsomes; assay type: ADME
Cytochrome P450 2D6 [25] = target: T5, Cytochrome P450 2D6; experiment: Inhibition of CYP2D6 in human liver microsomes; assay type: ADME; conditions: human, microsomes
[26] = Permeability of the compound at pH 5.5 by PAMPA; assay type: ADME; conditions: read-out: permeability

T1 sequence (P08684 whole entry): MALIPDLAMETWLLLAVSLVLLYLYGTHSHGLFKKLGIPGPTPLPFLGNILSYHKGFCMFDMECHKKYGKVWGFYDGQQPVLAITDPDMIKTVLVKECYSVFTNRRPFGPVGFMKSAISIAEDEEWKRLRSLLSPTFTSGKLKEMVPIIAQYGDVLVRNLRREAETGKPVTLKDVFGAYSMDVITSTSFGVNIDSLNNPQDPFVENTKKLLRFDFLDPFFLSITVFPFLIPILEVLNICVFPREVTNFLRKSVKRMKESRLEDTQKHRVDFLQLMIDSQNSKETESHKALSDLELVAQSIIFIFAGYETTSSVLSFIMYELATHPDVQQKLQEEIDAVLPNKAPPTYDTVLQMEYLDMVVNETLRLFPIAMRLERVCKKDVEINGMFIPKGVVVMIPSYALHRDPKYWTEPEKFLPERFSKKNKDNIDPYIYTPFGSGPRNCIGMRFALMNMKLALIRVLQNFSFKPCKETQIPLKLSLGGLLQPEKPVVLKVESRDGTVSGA

Question: For `CC(C)COc1ncc(-c2nn(C)c3cc(C(=O)NS(C)(=O)=O)ccc23)cc1Cl`, which “inhibition (INH)” value (Cytochrome P450 3A4 [1]) is on record?
Answer: Not Active

Question: And the “inhibition (INH)” value (Cytochrome P450 2B6 [2])?
Answer: Not Active

Question: And the remaining at 10 min, 0.5 µM [3]?
Answer: 100%

Question: And the “inhibition (INH)” value (Cytochrome P450 2C19 [4])?
Answer: Not Active

Question: And the fraction unbound [5]?
Answer: 0.002

Question: And the “inhibition (INH)” value (Cytochrome P450 2C8 [6])?
Answer: Not Active

Question: And the TDI (Cytochrome P450 2D6 [7])?
Answer: Not Active

Question: What about the TDI (Cytochrome P450 2C9 [8]) of the same compound?
Answer: Not Active

Question: And the IC50 [9]?
Answer: 0.012 µM

Question: And the Activity [10]?
Answer: Toxic

Question: What about the Papp [11] of the same compound?
Answer: 41.7 ×10⁻⁶ cm/s

Question: And the remaining at 10 min, 0.5 µM [12]?
Answer: 100%

Question: And the TDI (Cytochrome P450 2B6 [13])?
Answer: Not Active

Question: What about the “Cp(f)” value [14] of the same compound?
Answer: 0.56 nM

Question: And the “inhibition (INH)” value (Cytochrome P450 2C9 [15])?
Answer: Not Active

Question: And the remaining at 10 min, 0.5 µM [16]?
Answer: 100%

Question: What about the Activity (Mus musculus [17]) of the same compound?
Answer: inactive

Question: And the TDI (Cytochrome P450 3A4 [18])?
Answer: Not Active

Question: And the IC50 [19]?
Answer: 0.011 µM

Question: What about the Activity [20] of the same compound?
Answer: Toxic

Question: And the concentration [21]?
Answer: 280 nM

Question: What about the Activity (Mus musculus [22]) of the same compound?
Answer: inactive

Question: And the TDI (Cytochrome P450 2C8 [23])?
Answer: Not Active

Question: And the TDI (Cytochrome P450 2C19 [24])?
Answer: Not Active

Question: What about the “inhibition (INH)” value (Cytochrome P450 2D6 [25]) of the same compound?
Answer: Not Active

Question: And the Papp [26]?
Answer: 116 ×10⁻⁶ cm/s
